The record followed here is patent US12448399B2, “Cereblon-based KRAS degrading PROTACs and uses related thereto” (Arvinas Operations, Inc., priority 2023, dated 2025).

For orientation: Dmax means the greatest extent of degradation seen. The low end stands for a partial loss of target, the high end for a fuller loss of target. In general, DC50 refers to the concentration giving 50% degradation. A high value points to degradation only at high concentration.

Structures are written as SMILES.

The target of this assay is T1, KRas-G12D (Homo sapiens, UniProt P01116, G12D).
T1 construct: insert the HiBiT tag onto the N-terminus of one or more of the endogenous KRas alleles; host or cells: AsPC-1 HiBiT-KRasG12D knock-in clone (one tagged allele, two untagged KRasG12D alleles)
As to the kind of experiment: HiBiT Degradation Assay (G12D), AsPC-1 HiBiT-KRasG12D cells, 24 hr. The settings on record: for Dmax: ASPC1, AsPC-1 cells, maximum degradation observed; for DC50: AsPC-1 cells. The format is cell-based. The gist of the method:
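Degradation was read after 24 hr compound exposure (0.5% DMSO, 37° C) by Nano-Glo HiBiT lytic luminescence in AsPC-1 cells carrying a HiBiT tag on one of three KRasG12D alleles. Signal relative to DMSO gave DC50 and Dmax by 4-parameter fit; alamar blue fluorescence monitored cytotoxicity.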
Background: HiBiT is a short tag that completes a luciferase, so light tracks the accessible tagged protein.

T1 sequence (P01116 1-188 isoform P01116-2 G12D): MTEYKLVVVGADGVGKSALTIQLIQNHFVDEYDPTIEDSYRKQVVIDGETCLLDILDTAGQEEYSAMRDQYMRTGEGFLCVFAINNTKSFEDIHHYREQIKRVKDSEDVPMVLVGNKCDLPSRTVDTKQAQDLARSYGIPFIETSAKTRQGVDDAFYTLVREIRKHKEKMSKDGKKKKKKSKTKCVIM

The compound `C#Cc1c(F)ccc2cc(O)cc(-c3ncc4c(N5CC6CCC(C5)N6)nc(OC[C@@H]5C[C@@H](OC6CCN(CC7CCN(c8cc(C)c9c(c8F)CN(C8CCC(=O)NC8=O)C9=O)CC7)CC6)CN5C)nc4c3F)c12` (stereo partly drawn) [Compound 151, 3-(5-{4-[(4-{[(3R,5S)-5-{[(4-{3,8-diazabicyclo[3.2.1]octan-3-yl}-7-(8-ethynyl-7-fluoro-3-hydroxynaphthalen-1-yl)-8-fluoropyrido[4,3-d]pyrimidin-2-yl)oxy]methyl}-1-methylpyrrolidin-3-yl]oxy}piperidin-1-yl)methyl]piperidin-1-yl}-4-fluoro-7-methyl-1-oxo-2,3-dihydro-1H-isoindol-2-yl)piperidine-2,6-dione] gave a Dmax greater than 70% and a DC50 of less than 5.1 µM. Compound `C#Cc1c(F)ccc2cccc(-c3ncc4c(N5CC6CCC(C5)N6)nc(OCCN5CCC6(CC5)CCN(CC5CCN(c7ccc8c(c7F)CN(C7CCC(=O)NC7=O)C8=O)CC5)CC6)nc4c3F)c12` (stereo not shown) [Compound 156] came in with a DC50 greater than 1 µM. Still for that read-out and setting: to `CCc1cccc2cc(O)cc(-c3ncc4c(N5CC6CCC(C5)N6)nc(OCCN5CCC(CCN6CCN(c7ccc8c(c7)C(=O)N(C7CCC(=O)NC7=O)C8=O)CC6)CC5)nc4c3F)c12` (stereo not shown) [Compound 31] belongs 0.1 to 5.25 µM; to `CCc1cccc2cc(O)cc(-c3ncc4c(N5CC6CCC(C5)N6)nc(OCCN5CCC(F)(CC6CCN(c7cccc8c7CN(C7CCC(=O)NC7=O)C8=O)CC6)CC5)nc4c3F)c12` (stereo not shown) [Compound 29], 0.25 to 1 µM. With `CCc1c(F)ccc2cc(O)cc(-c3ncc4c(N5CC6CCC(C5)N6)nc(OCCN5CCC(C)(CC6CCN(CC7CCN(c8ccc9c(c8)n(C)c(=O)n9C8CCC(=O)NC8=O)CC7)CC6)CC5)nc4c3F)c12` (stereo not shown) [Compound 179, 3-{5-[4-({4-[(1-{2-[(4-{3,8-diazabicyclo[3.2.1]octan-3-yl}-7-(8-ethyl-7-fluoro-3-hydroxynaphthalen-1-yl)-8-fluoropyrido[4,3-d]pyrimidin-2-yl)oxy]ethyl}-4-methylpiperidin-4-yl)methyl]piperidin-1-yl}methyl)piperidin-1-yl]-3-methyl-2-oxo-2,3-dihydro-1H-1,3-benzodiazol-1-yl}piperidine-2,6-dione], the maximal degradation (Dmax) was greater than 70% and the DC50 is less than 5.1 µM. In turn, `CCc1cccc2cc(O)cc(-c3ncc4c(N5CC6CCC(C5)N6)nc(OCCN5CCC(c6ccc7c(c6)CN(C6CCC(=O)NC6=O)C7=O)CC5)nc4c3F)c12` (stereo not shown) [Compound 38] registered a DC50 of 0.1 to 5.25 µM. In turn, `C#Cc1c(F)ccc2cc(O)cc(-c3ncc4c(N5CC6CCC(C5)N6)nc(OCCN5CCC(CN6CCN(CC7CCN(c8ccc9c(c8)CN(C8CCC(=O)NC8=O)C9=O)CC7)CC6)CC5)nc4c3F)c12` (stereo not shown) [Compound 111, 3-[5-[4-[[4-[[1-[2-[4-(3,8-diazabicyclo[3.2.1]octan-3-yl)-7-(8-ethynyl-7-fluoro-3-hydroxy-1-naphthyl)-8-fluoro-pyrido[4,3-d]pyrimidin-2-yl]oxyethyl]-4-piperidyl]methyl]piperazin-1-yl]methyl]-1-piperidyl]-1-oxo-isoindolin-2-yl]piperidine-2,6-dione] displayed a Dmax greater than 70% and a DC50 of less than 5.1 µM. `C#Cc1c(F)ccc2cc(O)cc(-c3ncc4c(N5CC6CCC(C5)N6)nc(OCCN5CCC(CN6CCN(CC7CCN(c8cc(C)c9c(c8F)CN(C8CCC(=O)NC8=O)C9=O)CC7)CC6)CC5)nc4c3F)c12` (stereo not shown) [Compound 148, 3-{5-[4-({4-[(1-{2-[(4-{3,8-diazabicyclo[3.2.1]octan-3-yl}-7-(8-ethynyl-7-fluoro-3-hydroxynaphthalen-1-yl)-8-fluoropyrido[4,3-d]pyrimidin-2-yl)oxy]ethyl}piperidin-4-yl)methyl]piperazin-1-yl}methyl)piperidin-1-yl]-4-fluoro-7-methyl-1-oxo-2,3-dihydro-1H-isoindol-2-yl}piperidine-2,6-dione] registered a Dmax greater than 70% and a DC50 of less than 5.1 µM. The matching figures for `C#Cc1c(F)ccc2cc(O)cc(-c3ncc4c(N5CC6CCC(C5)N6)nc(OCC5(CN6CCN(CC7CCN(c8ccc9c(c8)n(C)c(=O)n9C8CCC(=O)NC8=O)CC7)CC6)CC5)nc4c3F)c12` (stereo not shown) [Compound 188, 3-{5-[4-({4-[(1-{[(4-{3,8-diazabicyclo[3.2.1]octan-3-yl}-7-(8-ethynyl-7-fluoro-3-hydroxynaphthalen-1-yl)-8-fluoropyrido[4,3-d]pyrimidin-2-yl)oxy]methyl}cyclopropyl)methyl]piperazin-1-yl}methyl)piperidin-1-yl]-3-methyl-2-oxo-2,3-dihydro-1H-1,3-benzodiazol-1-yl}piperidine-2,6-dione]: greater than 70% and less than 5.1 µM. The matching figures for `C#Cc1c(F)ccc2cc(O)cc(-c3ncc4c(N5CC6CCC(C5)N6)nc(OC[C@@]56CCCN5[C@H](CN5CCN(CC7CCN(c8ccc9c(c8)CN(C8CCC(=O)NC8=O)C9=O)CC7)CC5)CC6)nc4c3F)c12` (stereo partly drawn) [Compound 100, 3-(5-{4-[(4-{[(3S,7aS)-7a-{[(4-{3,8-diazabicyclo[3.2.1]octan-3-yl}-7-(8-ethynyl-7-fluoro-3-hydroxynaphthalen-1-yl)-8-fluoropyrido[4,3-d]pyrimidin-2-yl)oxy]methyl}-hexahydro-1H-pyrrolizin-3-yl]methyl}piperazin-1-yl)methyl]piperidin-1-yl}-1-oxo-2,3-dihydro-1H-isoindol-2-yl)piperidine-2,6-dione]: greater than 70% and less than 5.1 µM. The matching figures for `C#Cc1c(F)ccc2cc(O)cc(-c3ncc4c(N5CC6CCC(C5)N6)nc(OCC5(CN6CCC(CC7CCN(CC8CN(c9ccc%10c(c9)n(C)c(=O)n%10C9CCC(=O)NC9=O)C8)CC7)CC6)CC5)nc4c3F)c12` (stereo not shown) [Compound 229, 3-[5-[3-[[4-[[1-[[1-[[4-(3,8-diazabicyclo[3.2.1]octan-3-yl)-7-(8-ethynyl-7-fluoro-3-hydroxy-1-naphthyl)-8-fluoro-pyrido[4,3-d]pyrimidin-2-yl]oxymethyl]cyclopropyl]methyl]-4-piperidyl]methyl]-1-piperidyl]methyl]azetidin-1-yl]-3-methyl-2-oxo-benzimidazol-1-yl]piperidine-2,6-dione]: greater than 70% and less than 5.1 µM. As to `CCc1cccc2cc(O)cc(-c3ncc4c(N5CC6CCC(C5)N6C)nc(OC[C@@]56CCCN5[C@H](COC(=O)N5CCN(c7ccc8c(c7)CN(C7CCC(=O)NC7=O)C8=O)CC5)CC6)nc4c3F)c12` (stereo partly drawn) [Compound 47, [(3S,8S)-8-[[7-(8-ethyl-3-hydroxy-1-naphthyl)-8-fluoro-4-(8-methyl-3,8-diazabicyclo[3.2.1]octan-3-yl)pyrido[4,3-d]pyrimidin-2-yl]oxymethyl]-1,2,3,5,6,7-hexahydropyrrolizin-3-yl]methyl4-[2-(2,6-dioxo-3-piperidyl)-1-oxo-isoindolin-5-yl]piperazine-1-carboxylate], the greatest degradation seen (Dmax) was no more than 25% and the DC50 fell in the range of 0.25 to 1 µM. The matching figures for `C#Cc1c(F)ccc2cc(O)cc(-c3ncc4c(N5CC6CCC(C5)N6)nc(OCCN5CCN(CC6CCN(CC7CCN(c8ccc9c(c8)n(C)c(=O)n9C8CCC(=O)NC8=O)CC7)CC6)CC5(C)C)nc4c3F)c12` (stereo not shown) [Compound 162, 3-{5-[4-({4-[(4-{2-[(4-{3,8-diazabicyclo[3.2.1]octan-3-yl}-7-(8-ethynyl-7-fluoro-3-hydroxynaphthalen-1-yl)-8-fluoropyrido[4,3-d]pyrimidin-2-yl)oxy]ethyl}-3,3-dimethylpiperazin-1-yl)methyl]piperidin-1-yl}methyl)piperidin-1-yl]-3-methyl-2-oxo-2,3-dihydro-1H-1,3-benzodiazol-1-yl}piperidine-2,6-dione]: greater than 70% and less than 5.1 µM.
